How the values were obtained:
Murine 3T3 fibroblast = test: Stripe assay, 3T3; assay type: cell-based, mouse; design: key: Bands that were completely inhibitory to cell adhesion, migration and/or invasion were evaluated as (−); those allowing limited cell adhesion, migration and/or invasion (+/−); those permissive to cell adhesion, migration and/or invasion as (+); settings: for Effect of KS/CS-PG on Cell Migration / DS-PG Effect on Adhesion, Migration and Invasion: 3T3; for DS-PG Effect on Adhesion, Migration and Invasion: 2 days following plating
Description: (§1) Cell lines. Murine 3T3 fibroblast (NIH), rat C6 glioma (Paganetti et al., 1988, J. Cell Biol. 107:2281) and MCG-28 young immortalized mouse astrocyte (a murine neonatal astrocyte line immortalized with SV-40) were grown in medium composed of Dulbecco's modified Eagle medium (DMEM), 10% fetal calf serum (Gibco Laboratories), and penicillin G/streptomycin (100 units/ml, 100 μg/ml respectively, Gibco Laboratories). For the stripe assay, confluent plates were disaggregated with 0.05% trypsin, 0.53 mM EDTA (Gibco Laboratories) and seeded at 200,000 cells/ml (3 ml/plate). For the cell adhesion assays, confluent cultures were disaggregated with 0.03% EDTA and plated in a 96-well microtiter plate at 20,000-100,000 cells per well. PC12 cells, a pheochromocytoma cell line (Green L. A. & Tischler A. S., 1976, Proc. Natl. Acad. Sci. U.S.A. 73:2424), were grown in medium containing Roswell Park Memorial Institute (RPMI) medium 1640 (Gibco Laboratories), 10% horse serum, 5% fetal calf serum (FCS), and penicillin G/streptomycin (100 units/ml, 100 μg/ml respectively, Gibco Laboratories). The cells were disaggregated with 0.03% EDTA and plated in a 96-well microtiter plate at 3,000 cells per well.
(§2) The stripe assay was performed essentially as described by Snow et al. (1990, Exp. Neural. 309:111-130). Tissue culture Petri dishes (Falcon, 60 mm) were precoated with 0.5 ml of a mixture of 5 cm^2 section nitrocellulose (Schleicher & Schuell, Type BA 85) dissolved in 6 ml methanol, and air dried in a laminar flow hood. Cellulose filter paper (Whatman #1) was cut into 12×0.35 mm strips with a McIlwain tissue chopper (The Mickle Laboratory Engineering Co., LTD). A strip of filter paper was soaked in 20 μl of a solution of DS-PG or KS/CS-PG and LN at given concentration, blotted onto the nitrocellulose-coated dish for 30 sec. and removed. The test solution was allowed to air dry. This process was repeated several times creating clearly defined, equally spaced parallel bands of uniform width on the plates. A thin layer of 0.1 or 1 mg/ml LN was then spread evenly across the bands with a bent glass Pasteur pipet, and covered with culture medium (FIG. 1).
(§3) Plates were seeded with cell suspensions of 2.0×10^5 cells/ml or 4-10 DRG explants. The cultures were assessed for degree of adhesion, migration and/or invasion of the DS-PG or KS/CS-PG bands over a period of up to 7 days using a Leitz Fluovert microscope.
(§4) Bands that were completely inhibitory to cell adhesion, migration and/or invasion were evaluated as (−), those allowing limited cell adhesion, migration and/or invasion (+/−), and those permissive to cell adhesion, migration and/or invasion as (+). cell adhesion was defined as the initial interaction between the cell surface and the substratum which results in cell attachment and spreading. Cell migration was operationally defined as cell movement within the same substratum, and cell invasion was operationally defined as cell movement from one type of substratum to another type of substratum.

rat astrocytes (RAST) = test: Stripe assay, RAST; assay type: cell-based; design: key: Bands that were completely inhibitory to cell adhesion, migration and/or invasion were evaluated as (−); those allowing limited cell adhesion, migration and/or invasion (+/−); those permissive to cell adhesion, migration and/or invasion as (+); settings: for DS-PG Effect on Adhesion, Migration and Invasion: 2 days following plating
Description: Rat astrocytes (RAST) cultures were prepared from P-1-3 rat brain cortices. The cortices were stripped of connective tissue and blood vessels, cut into small pieces and dissociated in 0.5% collagenase (Gibco Laboratories) for 20 min at 37° C., followed by further dissociation in 0.25% trypsin for 15 min, and 0.04 mg/ml DNAse (Sigma) and 0.52 mg/ml soy bean trypsin inhibitor for 5 min at 37° C. The cells were subsequently mechanically dissociated by trituration with a Pastuer pipette and plated at 1.5×10^7 cells in a poly-L-lysine (PLL, Sigma) coated 75 cm^2 flask. The flask was shaken 4 hrs following plating to remove less adherent non-astrocytic oligodendrocytes and neurons.
as §2, §3, §4

rat C6 glioma = test: Stripe assay, C6; assay type: cell-based; design: key to DS-PG Effect on Adhesion, Migration and Invasion / Effect of KS/CS-PG on Cell Migration: Bands that were completely inhibitory to cell adhesion, migration and/or invasion were evaluated as (−); those allowing limited cell adhesion, migration and/or invasion (+/−); those permissive to cell adhesion, migration and/or invasion as (+); settings: for Effect of KS/CS-PG on Cell Migration / DS-PG Effect on Adhesion, Migration and Invasion: C6; for DS-PG Effect on Adhesion, Migration and Invasion: 2 days following plating
Description: as §1, §2, §3, §4

[1] = test system: dorsal root ganglia (DRG) explants; test: Stripe assay, DRG explants; assay type: cell-based, chick; design: key: Bands that were completely inhibitory to cell adhesion, migration and/or invasion were evaluated as (−); those allowing limited cell adhesion, migration and/or invasion (+/−); those permissive to cell adhesion, migration and/or invasion as (+); settings: for DS-PG Effect on Adhesion, Migration and Invasion: 2 days following plating
Description: Primary Explant Cultures. Dorsal root ganglia (DRGs) were obtained from E8-E9 chick embryos. The dissection was carried out in CMF-HBSS. The spinal cord was exposed and DRGs were removed and cleaned from surrounding connective tissue. DRGs were plated in DMEM/F12, 10% fetal calf serum containing 50 ng/ml nerve growth factor (NGF). The DRGs were seeded on laminin (LN, Gibco Laboratories) or poly-L-lysine (PLL, Sigma) coated dishes.
as §2, §3, §4

[2] = 0.25 mg/ml KS/CS-PG + LN stripes
[3] = 0.5 mg/ml KS/CS-PG + LN stripes
[4] = 1.0 mg/ml KS/CS-PG + LN stripes
[5] = 2.7 mg/ml KS/CS-PG + LN stripes
[6] = 0.1 mg/ml DS-PG + 20 μg/ml LN stripes
[7] = 0.2 mg/ml DS-PG + 20 μg/ml LN stripes
[8] = 0.4 mg/ml DS-PG + 20 μg/ml LN stripes
[9] = 0.8 mg/ml DS-PG + 20 μg/ml LN stripes

keratan sulfate/chrondroitin sulfate-proteoglycans [KS/CS-PG]
Effect of KS/CS-PG on Cell Migration (Murine 3T3 fibroblast; [2]): + | Effect of KS/CS-PG on Cell Migration (Murine 3T3 fibroblast; [3]): +/− | Effect of KS/CS-PG on Cell Migration (Murine 3T3 fibroblast; [4]): +/− | Effect of KS/CS-PG on Cell Migration (Murine 3T3 fibroblast; [5]): − | Effect of KS/CS-PG on Cell Migration (rat astrocytes (RAST); 0.12 mg/ml KS/CS-PG + LN stripes): + | Effect of KS/CS-PG on Cell Migration (rat astrocytes (RAST); [2]): +/− | Effect of KS/CS-PG on Cell Migration (rat astrocytes (RAST); [3]): +/− | Effect of KS/CS-PG on Cell Migration (rat astrocytes (RAST); [4]): +/− | Effect of KS/CS-PG on Cell Migration (rat astrocytes (RAST); [5]): − | Effect of KS/CS-PG on Cell Migration (rat C6 glioma; [2]): + | Effect of KS/CS-PG on Cell Migration (rat C6 glioma; [3]): + | Effect of KS/CS-PG on Cell Migration (rat C6 glioma; [4]): + | Effect of KS/CS-PG on Cell Migration (rat C6 glioma; [5]): +/− | time by which C6 overcame inhibition (rat C6 glioma; 2.7 mg/ml KS/CS-PG, following plating): ≤ 48 h | Effect of KS/CS-PG on Cell Migration [1, 2]: + | Effect of KS/CS-PG on Cell Migration [1, 3]: − | Effect of KS/CS-PG on Cell Migration [1, 4]: − | Effect of KS/CS-PG on Cell Migration [1, 5]: −

Dermatan sulfate proteoglycan [DS-PG]
Time Dependent Effect of DS-PG on 3T3 Cell Migration (Murine 3T3 fibroblast; 0.1 mg/ml (1.25 μM), 1d): + | Time Dependent Effect of DS-PG on 3T3 Cell Migration (Murine 3T3 fibroblast; 0.1 mg/ml (1.25 μM), 2d): + | Time Dependent Effect of DS-PG on 3T3 Cell Migration (Murine 3T3 fibroblast; 0.1 mg/ml (1.25 μM), 3d): + | Time Dependent Effect of DS-PG on 3T3 Cell Migration (Murine 3T3 fibroblast; 0.1 mg/ml (1.25 μM), 4d): + | Time Dependent Effect of DS-PG on 3T3 Cell Migration (Murine 3T3 fibroblast; 0.1 mg/ml (1.25 μM), 7d): + | DS-PG Effect on Adhesion, Migration and Invasion (Murine 3T3 fibroblast; [6]): + | Time Dependent Effect of DS-PG on 3T3 Cell Migration (Murine 3T3 fibroblast; 0.2 mg/ml (2.5 μM), 1d): +/− | Time Dependent Effect of DS-PG on 3T3 Cell Migration (Murine 3T3 fibroblast; 0.2 mg/ml (2.5 μM), 2d): +/− | Time Dependent Effect of DS-PG on 3T3 Cell Migration (Murine 3T3 fibroblast; 0.2 mg/ml (2.5 μM), 3d): +/− | Time Dependent Effect of DS-PG on 3T3 Cell Migration (Murine 3T3 fibroblast; 0.2 mg/ml (2.5 μM), 4d): +/− | Time Dependent Effect of DS-PG on 3T3 Cell Migration (Murine 3T3 fibroblast; 0.2 mg/ml (2.5 μM), 7d): + | DS-PG Effect on Adhesion, Migration and Invasion (Murine 3T3 fibroblast; [7]): +/− | Time Dependent Effect of DS-PG on 3T3 Cell Migration (Murine 3T3 fibroblast; 0.4 mg/ml (5 μM), 1d): − | Time Dependent Effect of DS-PG on 3T3 Cell Migration (Murine 3T3 fibroblast; 0.4 mg/ml (5 μM), 2d): − | Time Dependent Effect of DS-PG on 3T3 Cell Migration (Murine 3T3 fibroblast; 0.4 mg/ml (5 μM), 3d): − | Time Dependent Effect of DS-PG on 3T3 Cell Migration (Murine 3T3 fibroblast; 0.4 mg/ml (5 μM), 4d): − | Time Dependent Effect of DS-PG on 3T3 Cell Migration (Murine 3T3 fibroblast; 0.4 mg/ml (5 μM), 7d): +/− | DS-PG Effect on Adhesion, Migration and Invasion (Murine 3T3 fibroblast; [8]): − | Time Dependent Effect of DS-PG on 3T3 Cell Migration (Murine 3T3 fibroblast; 0.8 mg/ml (10 μM), 1d): − | Time Dependent Effect of DS-PG on 3T3 Cell Migration (Murine 3T3 fibroblast; 0.8 mg/ml (10 μM), 2d): − | Time Dependent Effect of DS-PG on 3T3 Cell Migration (Murine 3T3 fibroblast; 0.8 mg/ml (10 μM), 3d): − | Time Dependent Effect of DS-PG on 3T3 Cell Migration (Murine 3T3 fibroblast; 0.8 mg/ml (10 μM), 4d): − | Time Dependent Effect of DS-PG on 3T3 Cell Migration (Murine 3T3 fibroblast; 0.8 mg/ml (10 μM), 7d): +/− | DS-PG Effect on Adhesion, Migration and Invasion (Murine 3T3 fibroblast; [9]): − | DS-PG Effect on Adhesion, Migration and Invasion (rat astrocytes (RAST); [6]): + | DS-PG Effect on Adhesion, Migration and Invasion (rat astrocytes (RAST); [7]): +/− | DS-PG Effect on Adhesion, Migration and Invasion (rat astrocytes (RAST); [8]): +/− | DS-PG Effect on Adhesion, Migration and Invasion (rat astrocytes (RAST); [9]): − | DS-PG Effect on Adhesion, Migration and Invasion (rat C6 glioma; [6]): + | DS-PG Effect on Adhesion, Migration and Invasion (rat C6 glioma; [7]): +/− | DS-PG Effect on Adhesion, Migration and Invasion (rat C6 glioma; [8]): − | DS-PG Effect on Adhesion, Migration and Invasion (rat C6 glioma; [9]): − | stability of clear stripes (inhibition of C6 cells) (rat C6 glioma; 0.8 mg/ml DS-PG, followed up to 6 days): ≥ 4 days | DS-PG Effect on Adhesion, Migration and Invasion [1, 6]: + | DS-PG Effect on Adhesion, Migration and Invasion [1, 7]: +/− | DS-PG Effect on Adhesion, Migration and Invasion [1, 8]: − | DS-PG Effect on Adhesion, Migration and Invasion [1, 9]: −

Reference: US6756362B2, “Methods and compositions based on inhibition of cell invasion and fibrosis by anionic polymers” (priority 1991, dated 2004)
